Where a name gives a salt, the structure may show the parent alone.
Tests used:
[1] = test system: β amyloid protein (Aβ) secreted by E35 cells (human glioma H4 cells transfected with APP751 gene); assay: Inhibition of production or secretion of β-amyloid protein (Aβ) in E35 cells, sandwich ELISA of the supernatant; assay type: cell-based; settings: 24 hours with test compound, compared to DMSO control cells, read-out: Activity (IC50, concentration at which 50% inhibition of Aβ production was observed)
Description: The inhibitory activity against formation of β amyloid protein of the compounds obtained in Examples was tested in the method described bellow.
E35 cells were established by transfecting APP751 gene which is a wild type human β-amyloid protein precursor into human glioma cells (H4 cells).
E35 cells were seeded in 96-well plates and cultured in an incubator of 37° C. by using a Dulbecco's Modified Eagle's Medium containing 10% inactivated fetal bovine serum (10% FBS-DMEM). Twenty-four hours after seeding, a test compound dissolved in DMSO so as to give its concentration to be 2000 times as much as that of the final concentration was added to the medium in an amount of 1/2000 capacity of the culture medium. The cells were cultured for additional twenty-four hours, and then the supernatant was collected. The amount of β amyloid protein (Aβ) secreted in the supernatant was measured by the sandwich enzyme-linked immunosorbent assay (ELISA). Described specifically, a monoclonal antibody 25-1, which recognized Aβ25-35, was immobilized onto a 96-well ELISA plate, followed by the incubation at 4° C. for 16 to 20 hours. After washing with a phosphate buffer (pH 7.4) (PBS), a biotinylated monoclonal antibody MA32-40, which recognized Aβ1-8, was added, and the plate was kept at 4° C. for 2 hours. After the supernatant was removed and the well was washed sufficiently with PBS, alkaline phosphatase-conjugated streptavidin was added to the plate. Absorbance was measured while adding BlouPhos (manufactured by KPL) as a substrate. An amount of Aβ contained in the supernatant was calculated using a calibration curve separately created using Aβ of a known concentration. IC50 of the test compound was presented as the concentration at which 50% inhibition of Aβ production was observed compared to the amount of Aβ of the control cells to which only DMSO was added.
When there is at least 10-times difference between the IC50 and the concentration at which cytotoxicity appears, then the compound is judged as a compound having an inhibitory activity against production or secretion of β amyloid protein.

SMILES: CS(=O)(=O)CCNc1cc(C(c2cc(F)ccc2F)S(=O)(=O)c2ccc(Cl)cc2)c(Cl)cn1 (stereo not drawn) [Example 176, 5-Chloro-4-[(4-chlorophenylsulfonyl)-(2,5-difluorophenyl)methyl]-2-[(2-methylsulfonylethyl)amino]pyridine]
- IC50 [1]: < 5 nM

SMILES: OC1CCN(c2cc(C(Sc3ccc(Cl)cc3)c3cc(F)ccc3F)c(Cl)cn2)CC1 (stereo not drawn) [Example 115, 5-Chloro-4-[(4-chlorophenylthio)-(2,5-difluorophenyl)methyl]-2-(4′-hydroxypiperidin-1′-yl)pyridine]
- IC50 [1]: < 5 nM

SMILES: NNc1cc(C(c2cc(F)ccc2F)S(=O)(=O)c2ccc(Cl)cc2)c(Cl)cn1 (stereo not drawn) [Example 222, [5-Chloro-4-[(4-chlorophenylsulfonyl)(2,5-difluorophenyl)methyl]pyridin-2-yl]hydrazine]
- IC50 [1]: 5 to 50 nM

SMILES: O=S(=O)(c1ccc(Cl)cc1)C(c1cc(F)ccc1F)c1cc(N2CCC[C@H]2CO)ncc1Cl (stereo partly drawn) [Example 111]
- IC50 [1]: 5 to 50 nM

SMILES: NCC1CN(c2cc(C(c3cc(F)ccc3F)S(=O)(=O)c3ccc(Cl)cc3)c(Cl)cn2)CCO1 (stereo not drawn) [Example 114, 2-Aminomethyl-4-[5-chloro-4-[(4-chlorophenylsulfonyl)-(2,5-difluorophenyl)methyl]pyridin-2-yl]morpholine]
- IC50 [1]: 5 to 50 nM

SMILES: O=S(=O)(c1ccc(Cl)cc1)C(c1cc(F)ccc1F)c1cc(Cl)ncc1Cl (stereo not drawn) [Example 57, 2,5-Dichloro-4-[(4-chlorophenylsulfonyl)-(2,5-difluorophenyl)methyl]pyridine 0.5 hydrate]
- IC50 [1]: 5 to 50 nM

SMILES: COc1c(C(c2cc(F)ccc2F)S(=O)(=O)c2ccc(Cl)cc2)c(=O)oc2ccccc12 (stereo not drawn) [23 (Compound A), 3-[[(4-Chlorophenyl)sulfonyl]-(2,5-difluorophenyl)methyl]-4-methoxychromen-2-one]
- IC50 [1]: 5 to 50 nM

SMILES: Cl.O=S(=O)(c1ccc(Cl)cc1)C(c1cc(F)ccc1F)C1CCNCC1 (stereo not drawn)
- melting point: 184 to 190 °C

SMILES: O=S(=O)(c1ccc(Cl)cc1)C(c1ccc(CN2CCCCC2)cn1)c1cc(F)ccc1F (stereo not drawn) [Example 48, 2-[(4-Chlorophenylsulfonyl)-(2,5-difluorophenyl)methyl]-5-(piperidin-1-ylmethyl)pyridine]
- melting point: 113 to 114 °C

SMILES: Cc1cccnc1C(c1cc(F)ccc1F)S(=O)(=O)c1ccc(Cl)cc1 (stereo not drawn) [Example 14, 2-[[(4-Chlorophenyl)sulfonyl]-(2,5-difluorophenyl)methyl]-3-methylpyridine]
- melting point: 142 to 143 °C

SMILES: CC(C)(C)OC(=O)N1CCC(C(c2cc(F)ccc2F)S(=O)(=O)c2ccc(Cl)cc2)CC1 (stereo not drawn) [Example 37, t-Butyl 4-[[(4-chlorophenyl)sulfonyl](2,5-difluorophenyl)methyl]-1-piperidinecarboxylate]
- melting point: 193 to 196 °C

SMILES: COc1ccc(CNc2cc(C(c3cc(F)ccc3F)S(=O)(=O)c3ccc(F)cc3)c(Cl)cn2)cc1OC (stereo not drawn) [Example 214, [5-Chloro-4-[(2,5-difluorophenyl)-(4-fluorophenylsulfonyl)methyl]pyridin-2-yl](3,4-dimethoxybenzyl)amine]
- melting point: 158 to 159 °C

SMILES: Cc1ccc(C(c2cc(F)ccc2F)S(=O)(=O)c2ccc(Cl)cc2)nc1 (stereo not drawn) [Example 15, 2-[[(4-Chlorophenyl)sulfonyl]-(2,5-difluorophenyl)methyl]-5-methylpyridine]
- melting point: 159 to 160 °C

SMILES: O=C1C(C(c2cc(F)ccc2F)S(=O)(=O)c2ccc(Cl)cc2)CCCN1CCCO (stereo not drawn) [Example 153, 3-[(4-Chlorophenylsulfonyl)(2,5-difluorophenyl)methyl]-1-(3-hydroxypropyl)piperidin-2-one]
- melting point: 120 to 121 °C

SMILES: O=C(O)CCNc1cc(C(c2cc(F)ccc2F)S(=O)(=O)c2ccc(Cl)cc2)c(Cl)cn1 (stereo not drawn) (hydrate or solvate) [Example 155, 3-[[5-Chloro-4-[(4-chlorophenylsulfonyl)-(2,5-difluorophenyl)methyl]pyridin-2-yl]amino]propionic acid]
- melting point: 200 to 205 °C

SMILES: COc1cccnc1C(c1cc(F)ccc1F)S(=O)(=O)c1ccc(Cl)cc1 (stereo not drawn) [Example 17, 2-[[(4-Chlorophenyl)sulfonyl]-(2,5-difluorophenyl)methyl]-3-methoxypyridine]
- melting point: 184 to 185 °C

SMILES: COCCCNc1cc(C(c2cc(F)ccc2F)S(=O)(=O)c2ccc(Cl)cc2)c(Cl)cn1 (stereo not drawn) [Example 184]
- melting point: 146 to 148 °C

SMILES: O=C(Nc1ccon1)c1cnc(C(c2cc(F)ccc2F)S(=O)(=O)c2ccc(Cl)cc2)c(F)c1 (stereo not drawn) [Example 129, 6-(4-Chlorophenylsulfonyl)(2,5-difluorophenyl)methyl-5-fluoro-N-isoxazol-3-ylnicotinamide]
- melting point: 200 to 202 °C

SMILES: Fc1ccc(F)c(C(Sc2ccc(Cl)cc2)c2ccc(C3OCCO3)cn2)c1 (stereo not drawn) [Example 41, 2-[(4-Chlorophenylthio)-(2,5-difluorophenyl)methyl]-5-(1,3-dioxolan-2-yl)pyridine]
- melting point: 70 to 73 °C

SMILES: Cc1ccnc(C(c2cc(F)ccc2F)S(=O)(=O)c2ccc(Cl)cc2)c1 (stereo not drawn) [Example 16, 2-[[(4-Chlorophenyl)sulfonyl]-(2,5-difluorophenyl)methyl]-4-methylpyridine]
- melting point: 116 to 117 °C

SMILES: CN1CCC(C(c2ccncc2)S(=O)(=O)c2ccc(Cl)cc2)CC1 (stereo not drawn) [Example 5, 4-[(4-Chlorophenylsulfonyl)(1-methylpiperidin-4-yl)methyl]pyridine]
- melting point: 176 to 177 °C

SMILES: O=S(=O)(c1ccc(Cl)cc1)C(c1cc(F)ccc1F)c1cc(NCc2ccncc2)ncc1Cl (stereo not drawn) [Example 188, 5-Chloro-4-[(4-chlorophenylsulfonyl)(2,5-difluorophenyl)methyl]-2-[(pyridin-4-ylmethyl)amino]pyridine]
- melting point: 141 to 142 °C

SMILES: NCCCNc1cc(C(c2cc(F)ccc2F)S(=O)(=O)c2ccc(Cl)cc2)c(Cl)cn1 (stereo not drawn) (as salt: hydrochloride) [Example 173, N-[5-Chloro-4-[(4-chlorophenylsulfonyl)-(2,5-difluorophenyl)methyl]pyridin-2-yl]propane-1,3-diamine dihydrochloride]
- melting point: 193 to 195 °C

SMILES: Nc1cc(C(c2c(F)cccc2F)S(=O)(=O)c2ccc(Cl)cc2)c(Cl)cn1 (stereo not drawn) [Example 296, 5-Chloro-4-[(4-chlorophenylsulfonyl)(2,6-difluorophenyl)methyl]pyridin-2-ylamine]
- melting point: 179 to 181 °C

SMILES: Cc1cnc(NS(C)(=O)=O)cc1C(c1cc(F)ccc1F)S(=O)(=O)c1ccc(Cl)cc1 (stereo not drawn) [Example 212, N-[4-[(4-Chlorophenylsulfonyl)(2,5-difluorophenyl)methyl]-5-methylpyridin-2-yl]methanesulfonamide]
- melting point: 214 to 217 °C

SMILES: CC(C)(CO)CNc1cc(C(c2cc(F)ccc2F)S(=O)(=O)c2ccc(Cl)cc2)c(Cl)cn1 (stereo not drawn) [Example 195, 3-[5-Chloro-4-[(4-chlorophenylsulfonyl)(2,5-difluorophenyl)methyl]pyridin-2-ylamino]-2,2-dimethylpropan-1-ol]
- melting point: 176 to 178 °C

SMILES: Fc1ccc(SC(c2cc(F)ccc2F)c2cc(Cl)ncc2Cl)cc1 (stereo not drawn) [Example 177, 2,5-Dichloro-4-[(2,5-difluorophenyl)-(4-fluorophenylthio)methyl]pyridine]
- melting point: 95 to 97 °C

SMILES: CS(=O)(=O)NCCCNc1cc(C(c2cc(F)ccc2F)S(=O)(=O)c2ccc(Cl)cc2)c(Cl)cn1 (stereo not drawn) [Example 189, N-[3-[[5-Chloro-4-[(4-chlorophenylsulfonyl)-(2,5-difluorophenyl)methyl]pyridin-2-yl]amino]propyl]methanesulfonamide]
- melting point: 138 to 139 °C

SMILES: Nc1cccc(C(c2cc(F)ccc2F)S(=O)(=O)c2ccc(Cl)cc2)n1 (stereo not drawn) [Example 149, 6-[(4-Chlorophenylsulfonyl)(2,5-difluorophenyl)methyl]pyridin-2-ylamine]
- melting point: 183 to 184 °C

SMILES: COC(=O)/C=C/c1ccc(C(c2cc(F)ccc2F)S(=O)(=O)c2ccc(Cl)cc2)nc1 (stereo not drawn) [Example 44, Methyl 3-[6-[(4-chlorophenylsulfonyl)-(2,5-difluorophenyl)methyl]pyridin-3-yl]acrylate]
- melting point: 145 to 146 °C

SMILES: O=S(=O)(c1ccc(Cl)cc1)C(c1cc(F)ccc1F)c1cc(CO)ncc1Cl (stereo not drawn) [Example 257, [5-Chloro-4-[(4-chlorophenylsulfonyl)(2,5-difluorophenyl)methyl]pyridin-2-yl]methanol]
- melting point: 164 to 165 °C

SMILES: O=S(=O)(c1ccc(Cl)cc1)C(c1cc(F)ccc1F)C1CCSCC1 (stereo not drawn) [Example 35, 4-[[(4-Chlorophenyl)sulfonyl](2,5-difluorophenyl)methyl]tetrahydrothiopyrane]
- melting point: 150 to 152 °C

SMILES: Cc1cnc(CO)cc1C(c1cc(F)ccc1F)S(=O)(=O)c1ccc(Cl)cc1 (stereo not drawn) [Example 207, [4-[(4-Chlorophenylsulfonyl)(2,5-difluorophenyl)methyl]-5-methylpyridin-2-yl]methanol]
- melting point: 196 to 198 °C
